Experimental findings from patent US20080200454A1, “CARBON-LINKED TETRAHYDRO-PYRAZOLO-PYRIDINE MODULATORS OF CATHEPSIN S” (priority 2007, published 2008) are described below.

The assay addresses Recombinant human cathepsin S (CatS) (Homo sapiens, UniProt P25774). Put plainly: Recombinant human cathepsin S (CatS) inhibition assay, fluorogenic substrate Z-Valine-Valine-Arginine-AMC.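 Note: Baculovirus-expressed CatS in pH 5.0 sodium acetate buffer with DTT and NaCl, fluorescence read each minute over 20 min, inhibition derived from rate slope.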

Sequence of Recombinant human cathepsin S (CatS) (P25774 115-331): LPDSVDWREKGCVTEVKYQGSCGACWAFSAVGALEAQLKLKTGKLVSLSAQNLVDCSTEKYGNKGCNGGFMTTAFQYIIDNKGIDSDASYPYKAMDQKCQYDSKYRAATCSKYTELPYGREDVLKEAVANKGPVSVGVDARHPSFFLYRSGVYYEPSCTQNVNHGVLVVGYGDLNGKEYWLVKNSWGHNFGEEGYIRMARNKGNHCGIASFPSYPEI

One may read the IC50 as the concentration at which inhibition is half-maximal. Regarding `CN1CCc2ccc(C#Cc3cc(-c4nn(CCCN5CCN(c6ccccc6)CC5)c5c4CN(S(C)(=O)=O)CC5)ccc3Cl)cc2C1` [Example 226, 7-[(2-Chloro-5-{5-(methylsulfonyl)-1-[3-(4-phenylpiperazin-1-yl)propyl]-4,5,6,7-tetrahydro-1H-pyrazolo[4,3-c]pyridin-3-yl}phenyl)ethynyl]-2-methyl-1,2,3,4-tetrahydroisoquinoline], the IC50 was 0.03 µM.

On to `CS(=O)(=O)N1CCc2c(c(-c3ccc(Cl)c(CCCNS(=O)(=O)c4ccccc4[N+](=O)[O-])c3)nn2CCCN2CCC(N3CCCC3=O)CC2)C1` [Example 89, N-{3-[2-Chloro-5-(5-methanesulfonyl-1-{3-[4-(2-oxo-pyrrolidin-1-yl)-piperidin-1-yl]-propyl}-4,5,6,7-tetrahydro-1H-pyrazolo[4,3-c]pyridin-3-yl)-phenyl]-propyl}-2-nitro-benzenesulfonamide], for which the IC50 amounted to 0.29 µM.

`CC(C)(C)OC(=O)N1CCN(CC(O)Cn2nc(-c3ccc(Cl)c(C#Cc4ccc(Cl)cc4)c3)c3c2CCN(S(C)(=O)=O)C3)CC1` (stereo not drawn) [Example 131, 4-(3-{3-[4-Chloro-3-(4-chloro-phenylethynyl)-phenyl]-5-methanesulfonyl-4,5,6,7-tetrahydro-pyrazolo[4,3-c]pyridin-1-yl}-2-hydroxy-propyl)-piperazine-1-carboxylic acid tert-butyl ester]: the IC50 was determined as 0.16 µM.
